Measured values taken from PubChem BioAssay (NCI).
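The concentration for 50% growth inhibition is given as GI50. TGI denotes the concentration required for complete inhibition of growth.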

Key:
Experiment in all cases: growth of human tumour cells (NCI), 384-well format
CAKI-1 renal = test system: CAKI-1 renal
CCRF-CEM leukemia = test system: CCRF-CEM leukemia
K-562 leukemia = test system: K-562 leukemia
NCI-H226 lung = test system: NCI-H226 lung
NCI-H23 lung = test system: NCI-H23 lung
OVCAR-4 ovarian = test system: OVCAR-4 ovarian
PC-3 prostate = test system: PC-3 prostate
SF-295 CNS = test system: SF-295 CNS
SK-MEL-28 melanoma = test system: SK-MEL-28 melanoma
SK-OV-3 ovarian = test system: SK-OV-3 ovarian
SNB-75 CNS = test system: SNB-75 CNS
SR leukemia = test system: SR leukemia
UO-31 renal = test system: UO-31 renal

`CC1(N)CCN(c2cccnc2NC(=O)c2nc(-c3ncccc3C(F)(F)F)cnc2N)CC1` showed a GI50 (CAKI-1 renal) of 6.11 µM, a TGI (CAKI-1 renal) of 24.2 µM and a GI50 (CCRF-CEM leukemia) of 15.4 µM. It also gave a TGI (CCRF-CEM leukemia) of 28.9 µM, a GI50 (K-562 leukemia) of 16.3 µM and a TGI (K-562 leukemia) of 31.3 µM. For the same compound, the GI50 (NCI-H226 lung) was 16.9 µM, the TGI (NCI-H226 lung) was 47.4 µM and the GI50 (NCI-H23 lung) was 29.7 µM. The TGI (NCI-H23 lung) was > 78.7 µM, the GI50 (OVCAR-4 ovarian) was > 69.4 µM and the TGI (OVCAR-4 ovarian) was > 100 µM. For the same compound, the GI50 (PC-3 prostate) was 16.7 µM, the TGI (PC-3 prostate) was 57 µM and the GI50 (SF-295 CNS) was > 49.3 µM. The TGI (SF-295 CNS) was > 72.6 µM, the GI50 (SK-MEL-28 melanoma) was 24.2 µM and the TGI (SK-MEL-28 melanoma) was > 62.3 µM. The GI50 (SK-OV-3 ovarian) was 17.8 µM, the TGI (SK-OV-3 ovarian) was 38.6 µM and the GI50 (SNB-75 CNS) was 17 µM. The TGI (SNB-75 CNS) was 48.2 µM, the GI50 (SR leukemia) was 9.47 µM and the TGI (SR leukemia) was 21.5 µM. For the same compound, the GI50 (UO-31 renal) was 31 µM and the TGI (UO-31 renal) was > 100 µM.
